{"source": "patent US20240385168A1", "about": "“SEMICONDUCTOR-BASED MEASUREMENT DEVICES” (CytoTronics, priority 2023, published 2024)", "key": {"[1]": {"test_system": "autosomal dominant polycystic kidney disease (ADPKD)", "settings": "cited from earlier work"}, "[2]": {"test_system": "MDCK cells", "assay": "Live-cell impedance measurements of MDCK cells after compound treatment (water transport, doming)", "format": "cell-based, canine", "description": "(§1) Impedance measurements were performed with two different electric field configurations named vertical field (VF) and lateral field (LF) and at four different frequencies of 250 Hz, 1 kHz, 4 kHz, and 16 kHz, as shown in FIG. 27A. In total, 9 impedance parameter maps were measured per field configuration, including magnitude and phase for the 4 frequencies and a Direct Current (DC, 0 Hz) magnitude. […] Connections were observed between biological information and measurements at frequency magnitudes, phases, and DC.\n(§2) To perform field-based impedance measurements across multiple frequencies, a voltage stimulation was applied which is the summation of the four different frequency signals and return currents were measured using a transimpedance amplifier (TIA) configuration with a feedback gain of 18 MΩ. The magnitudes of the AC voltage signals were scaled to create similar output amplitudes that were measured by the TIA configuration (0.2 V/250 Hz, 0.08 V/1 kHz, 0.04 V/4 kHz, and 0.02 V/16 kHz for lateral field, 0.25 V/250 Hz, 0.1 V/1 kHz, 0.04 V/4 kHz, and 0.025 V/16 kHz for vertical field). Six of the 96 wells were scanned at a time taking 2.5 s, resulting in a total scan time across the well plate of 40 s. A fast Fourier transform (FFT) was used to extract the magnitude and phase of each of the four frequencies and the DC component—9 impedance parameter maps for each field configuration.\n(§3) A reference impedance map was used to determine the location of cells: a threshold was set above the electrodes' default impedance in solution, and the presence of a cell above an electrode then increased the impedance beyond the threshold for detection. Typically, the VF 4 kHz map provided the best contrast for generating the cell mask. For magnitude, phase, and DC, the median value of electrodes with cells was then calculated. An additional epoxy mask was calculated in a similar manner to remove electrodes which had spillover epoxy from well plate attachment. Before each cell plating, a reference measurement was taken in empty culture media to calculate the epoxy mask.\n(§4) Transient features such as motility and migration were generated from impedance videos through a root-mean-square (RMS) calculation. The difference between two unmasked image frames was taken (the epoxy mask was still used if applicable), then the RMS calculation was performed across the pixels of the difference map. To normalize for changes in magnitude, the calculated RMS was then divided by the median value of the cell-masked well distribution. Typically, the VF 4 kHz map was used for the RMS signal generation.\n(§5) Compound treatments were performed using a half media exchange. To prepare for compound addition, half the media from each well was removed. […]"}, "[3]": {"test_system": "Caco-2 cells", "assay": "Caco-2 impedance barrier function measurements (341 compound screen, dose response, Amonafide analogues)", "format": "cell-based, human", "settings": "dose response 1 nM to 10 μM"}, "[4]": {"test_system": "ZO-1 in Caco-2 cells", "assay": "Immunofluorescence imaging and quantification of ZO-1 in Caco-2 cells", "format": "cell-based, human", "settings": "48 hours post-compound treatment", "description": "For immunofluorescence imaging, cells were grown on coverslips and then either allowed to grow for 48 hours or treated with relevant compounds for 48 hours. Cells were then fixed in 4% paraformaldehyde, washed, permeabilized with 0.5% Triton-X 100 in PBS, and then subjected to antibody incubation. Antibodies used were anti-E-Cadherin (obtained from Cell Signaling Technology, Danvers, MA, as cat no: 3195T), anti-ZO1 (obtained from Thermo Fisher, Waltham, MA, as cat no:617300) and anti-Occludin (obtained from Thermo Fisher as cat no: 331500). Alexa Fluor 488 and 568 secondary antibodies were used. Coverslips were mounted in Vectashield® antifade mounting medium with DAPI.\nImaging was performed using a Yokogawa Wi spinning disk confocal on an inverted Nikon Ti fluorescence microscope equipped with Hamamatsu ORCA-Fusion BT CMOS camera (6.5 μm^2 photodiode), Lumencor SOLA fluorescence light source, and Nikon LUN-F XL solid state laser combiner: 405 nm (80 mW), 445 nm (35 mW), 488 nm (80 mW), 514 nm (50 mW), 561 nm (65 mW), and 640 nm (60 mW). For imaging, the widefield modality of the microscope was typically used, and all imaging was done using a 20× objective. Acquisition was performed using consistent exposure across samples to enable intensity quantification. Images were processed using the open source image processing software FIJI.\nQuantification of ZO-1 in the cell-membrane and nucleus was performed by manually defining ROIs for the cell membrane and nucleus. Mean integrated intensity was calculated within the ROI. All quantification was performed in raw, unprocessed images."}, "[5]": {"test_system": "Caco-2 cells", "assay": "Caco-2 impedance barrier function measurements (341 compound screen, dose response, Amonafide analogues)", "format": "cell-based, human", "settings": "for change in Caco-2 barrier function at 12 hours post-compound application: 10 μM, versus control; for barrier increase (maximum VF 250 Hz) over the 48-hours: screen at 10 μM", "description": "To execute and analyze the screens, cells were seeded on five CMOS 96-wellplates, allowed to grow for 24 hours for A549 or 48 hours for Caco-2, compounds were added at 10 μM in 1% DMSO via a half media swap using an OpenTrons liquid handling robot. Effects were measured for 48 hours, with impedance measurements taken every 15 minutes. The many field/frequency and calculated parameters were then normalized to a timepoint one hour before compound addition. The array of normalized parameters at timepoints logarithmically spaced from compound addition to +48 hours were then used for a principal component analysis (PCA) and unbiased clustering using the top 20 PCA dimensions.\nCompound treatments were performed using a half media exchange. To prepare for compound addition, half the media from each well was removed. Compounds were prepared at 2× concentration in cell culture media, and the 2× compound solution was then added to the wells. Care was taken to keep DMSO concentration below 1%, compound dilutions were performed with a constant DMSO concentration. Compound in media was temperature- and CO2-equilibrated prior to addition. All compounds including the 341 compound library were obtained from Selleckchem Chemicals (Houston, TX). For the screening analysis, the pathway and target information provided by Selleckchem Chemicals was curated together.\nIn the second approach, rather than comparing 5 measurement parameters, all field and calculation parameters were used to perform an unbiased phenotypic profiling with a larger compound library. A total of 341 compounds were chosen as a sub-set of an FDA approved library and applied on two cell types, A549 and Caco-2. At least two compounds per target were chosen for conserved phenotype effects. For the screens, compounds were added 24 or 48 hours post cell seeding and measured up to 48 hours after the compound addition. Time normalization, a principal component analysis (PCA), and unbiased clustering were sequentially performed on the high-dimensional data readouts (VF & LF magnitudes, phase, and DC). This unbiased approach ensured compound separation based solely on functional and morphological effects of the cells, with no bias of the targets/pathways of the compounds."}, "[6]": {"test_system": "many cell types", "assay": "Vertical field (VF) impedance across many cell types", "format": "cell-based", "description": "as §1, §2"}, "[7]": {"test_system": "MDA-MB-231 cells", "assay": "Live-cell impedance measurements of MDA-MB-231 cells after compound treatment", "format": "cell-based, human", "description": "as §1, §2, §3, §4, §5"}}, "note": "“Also recorded” adds a separate entry of the source.", "data": [{"smiles": "COc1cc(Nc2ncc3c(n2)-c2ccc(Cl)cc2C(c2c(F)cccc2OC)=NC3)ccc1C(=O)O", "note": "[Alisertib]", "values": [{"measurement": "ADPKD in animal models", "setting": "[1]", "result": "exacerbate"}, {"measurement": "cell surface attachment", "setting": "[2]", "result": "sharp decrease"}, {"measurement": "transepithelial water transport", "setting": "[2]", "result": "accelerated"}, {"measurement": "domes (doming)", "setting": "[2]; Alisertib 1 μM, Bosutinib 10 μM", "result": "increased doming; also recorded: Domes were only observed"}, {"measurement": "water transport detachment (LF 16 kHz) with respect to the control", "setting": "[2]; mean±s.d. for 3 wells", "result": "accelerated"}]}, {"smiles": "CN(C)CCN1C(=O)c2cccc3cc(N)cc(c23)C1=O", "note": "[Amonafide]", "values": [{"measurement": "time course of barrier increase", "setting": "[3]", "result": "rapid increase in barrier; also recorded: rapid and sustained increase"}, {"measurement": "ZO-1 levels and distribution (membrane, nucleus)", "setting": "[4]", "result": "increase in membrane ZO-1 levels, with additional nuclear localization; also recorded: Significant increases in ZO-1 in the membrane and nucleus"}, {"measurement": "change in Caco-2 barrier function at 12 hours post-compound application", "setting": "[5]", "result": "rapid increase in barrier"}, {"measurement": "barrier increase (maximum VF 250 Hz) over the 48-hours", "setting": "[5]", "result": "largest barrier increase; also recorded: highest observed increase in barrier"}]}, {"smiles": "COc1ccc(C[C@H]2NC[C@H](O)[C@H]2OC(C)=O)cc1", "note": "[Anisomycin]", "values": [{"measurement": "VF (vertical field impedance)", "setting": "[6]", "result": "increases in VF"}]}, {"smiles": "Cc1cc(C2CCCCC2)n(O)c(=O)c1", "note": "[Ciclopirox]", "values": [{"measurement": "time course of barrier increase", "setting": "[3]", "result": "more gradual increase in barrier"}, {"measurement": "ZO-1 levels and distribution (membrane, nucleus)", "setting": "[4]", "result": "did not affect ZO-1 distribution or expression"}, {"measurement": "barrier increase (maximum VF 250 Hz) over the 48-hours", "setting": "[5]", "result": "largest barrier increase; also recorded: increased the barrier; also recorded: highest observed increase in barrier"}]}, {"smiles": "C=C1[C@@H](C)[C@H]2[C@H](Cc3ccccc3)NC(=O)[C@]23[C@H](OC(C)=O)/C=C/[C@@](C)(O)C(=O)[C@@H](C)C/C=C/[C@H]3[C@@H]1O", "note": "[Cytochalasin D]", "values": [{"measurement": "attachment", "setting": "[7]", "result": "decreased"}, {"measurement": "concentration giving immediate cell size decrease", "setting": "[7]", "result": "≥ 0.2", "unit": "µM"}, {"measurement": "concentration giving subsequent cell size increase", "setting": "[7]", "result": "≥ 1", "unit": "µM"}, {"measurement": "motility (RMS)", "setting": "[7]", "result": "decrease"}]}, {"smiles": "CCN(CC)CCN1C(=O)c2cccc3cc(N)cc(c23)C1=O", "note": "[NSC 308848]", "values": [{"measurement": "ZO-1 levels and distribution (membrane, nucleus)", "setting": "[4]", "result": "Significant increases in ZO-1 in the membrane and nucleus"}, {"measurement": "change in Caco-2 barrier function at 12 hours post-compound application", "setting": "[5]", "result": "rapid increase in barrier"}]}, {"smiles": "CN(C)CCN1C(=O)c2cccc3cc(NC(N)=O)cc(c23)C1=O", "note": "[UNBS5162]", "values": [{"measurement": "ZO-1 levels and distribution (membrane, nucleus)", "setting": "[4]", "result": "did not affect ZO-1 levels or distribution"}, {"measurement": "change in Caco-2 barrier function at 12 hours post-compound application", "setting": "[5]", "result": "did not affect the barrier"}]}]}
